For test [1], the system named is EDG-3, EDG-5, EDG-6 and EDG-8. The test can be described thus: EDG-3, -5, -6 and -8 GTP [γ-35S] binding assays (SPA), CHO or RH7777 membranes. It is filed as biochemical, human. From the text:
(§1) A. In vitro: A scintillation proximity assay (SPA) for measuring GTP [γ-^35S] binding to membranes prepared from CHO cells expressing human EDG/S1P receptors.
EC50 values are obtained by fitting the GTP [γ-^35S] binding curves (raw data) with the dose response curve-fitting tool of ORIGIN V. 6.1. Basal binding (no compound) and the highest stimulation of GTP [γ-^35S] binding achieved by an agonist are used as the fitting range. Seven different concentrations are used to generate a concentration response curve (using two or three data points per concentration).
Concentrations of EDG receptor expressing membranes range between 13-19 μg per well. […] For example, 5-[4-(2′-fluoro-2-trifluoromethyl-biphenyl-4-yloxymethyl)-phenyl]-pyridine-2-carboxylic acid has an EC50 of 0.9 nM in the above assay and is at least 500 fold selective for EDG-1 compared to one or more of the other receptors including EDG-3, EDG-5, EDG-6 and EDG-8.

Test [2] relates to peripheral blood lymphocytes. The test can be described thus: Blood lymphocyte depletion, measurement of circulating lymphocytes. It is filed as in vivo. Particulars: Rattus norvegicus, Lewis rats, oral gavage 0.01-5 mg/kg, blood 6 and 48 hours after administration, read-out: ED50, effective dose required displaying 50% of blood lymphocyte depletion. The method, then:
C. In vivo: Screening Assays for Measurement of Blood Lymphocyte Depletion
Measurements of circulating lymphocytes: Compounds are dissolved in DMSO and PEG300 and diluted to obtain a final concentration of 2% DMSO and 2% PEG300 (v/v, final concentration). Lewis rats are administered compound solution orally by gavages at 0.01-5 mg/kg under short isoflurane anesthesia.
Blood is collected from the retro-orbital sinus 6 and 48 hours after drug administration under short isoflurane anesthesia. Whole blood samples are subjected to hematology analysis. Peripheral lymphocyte counts are determined using an automated analyzer. Subpopulations of peripheral blood lymphocytes are stained by fluorochrome-conjugated specific antibodies and analyzed using a fluorescent activating cell sorter (Facscalibur). Two to three rats are used to assess the lymphocyte depletion activity of each compound screened. The result is an ED50, which is defined as the effective dose required displaying 50% of blood lymphocyte depletion.

The next test deals with T1, human EDG-1 (Homo sapiens, UniProt P21453).
T1 construct: c-myc (N); expressed in transfected cells; host or cells: CHO cell clones (membrane preparation)
T1 sequence (P21453 whole entry): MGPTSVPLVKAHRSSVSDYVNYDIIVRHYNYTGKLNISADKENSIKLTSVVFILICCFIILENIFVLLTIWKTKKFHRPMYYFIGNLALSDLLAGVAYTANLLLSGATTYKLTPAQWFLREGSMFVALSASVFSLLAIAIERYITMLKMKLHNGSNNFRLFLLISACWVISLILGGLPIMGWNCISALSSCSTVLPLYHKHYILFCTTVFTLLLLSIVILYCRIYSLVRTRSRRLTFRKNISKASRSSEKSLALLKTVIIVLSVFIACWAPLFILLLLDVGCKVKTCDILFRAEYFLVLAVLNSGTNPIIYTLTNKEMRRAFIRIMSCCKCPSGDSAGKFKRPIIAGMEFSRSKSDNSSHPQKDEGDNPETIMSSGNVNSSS
The test can be described thus: EDG-1 (S1P1) GTP [γ-35S] binding assay (SPA), membranes of CHO cells. The test is classed as biochemical. Particulars: membranes from CHO cells expressing human EDG-1. The method, then:
as §1
EDG-1 (S1P1) GTP [γ-^35S] binding assay: Membrane protein suspensions are prepared from CHO cell clones stably expressing a human EDG-1 N-terminal c-myc tag. Solutions of test compounds ranging from 10 mM to 0.0 nM are prepared in DMSO/50 mM HCl and then diluted into assay buffer (20 mM HEPES, pH7.4, 100 mM NaCl, 10 mM MgCl2, 0.1% fat free BSA). Assay buffer-containing […] is mixed with wheat-germ agglutinin-coated SPA-beads (1 mg/well) followed by the addition of human EDG-1 membrane protein suspension (10 μg/well) and test compound. The bead/membrane/compound assay components are then mixed for 10-15 minutes on a shaker at room temperature. GTP [γ-^35S] (200 pM) and bead/membrane/compound assay mixture are added to individual wells of a 96 well Optiplate™ (final volume 225 μl/well), sealed and incubated at room temperature for 110 to 120 minutes under constant shaking. After centrifugation (2000 rpm, 10 minutes) luminescence is measured with a TopCount™ instrument.
EC50 values are obtained by fitting the GTP [γ-^35S] binding curves (raw data) with the dose response curve-fitting tool of ORIGIN V. 6.1. […]

One compound from patent US20090221547A1, “Immunosuppressant Compounds and Compositions” (IRM LLC, priority 2005, published 2009) can be followed below.

As to `O=C(O)c1ccc(-c2ccc(COc3ccc(-c4ccccc4F)c(C(F)(F)F)c3)cc2)cn1` [Example 1, 5-[4-(2′-Fluoro-2-trifluoromethyl-biphenyl-4-yloxymethyl)-phenyl]-pyridine-2-carboxylic acid], the “fold selective for EDG-1 compared to one or more of the other receptors including EDG-3, EDG-5, EDG-6 and EDG-8” value in test [1] is reported as “at least 500 fold”. Further, the 50% effective dose (ED50) in test [2] turned out to be 0.3 mg/kg. This compound also came in with an EC50 on human EDG-1 of 0.9 nM.

In general, ED50 refers to the dose at which the effect has come halfway, by size or by number of responders. By EC50 is commonly meant the midpoint of the concentration-response curve. Read a high EC50 as a need for much substance.
